Experimental data as given in PubChem BioAssay (NCI).
Values joined by “and” are separate entries in the source; they are usually repeats but may differ in a detail not shown here. Equal entries are not always repeated.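 In this assay, cells in 96-well plates receive the compound at five concentrations for 48 hours. Endpoints are linearly interpolated between the surrounding concentrations. At the TGI there is no net growth.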

What was measured:
Assay in all cases: DTP human tumour cell line panel, 48 h
SK-MEL-5 melanoma = system: SK-MEL-5 melanoma
HCT-15 colon = system: HCT-15 colon
TK-10 renal = system: TK-10 renal
K-562 leukemia = system: K-562 leukemia
NCI-H23 lung = system: NCI-H23 lung
SK-MEL-28 melanoma = system: SK-MEL-28 melanoma
IGROV1 ovarian = system: IGROV1 ovarian
NCI/ADR-RES ovarian = system: NCI/ADR-RES ovarian
SF-268 CNS = system: SF-268 CNS
CAKI-1 renal = system: CAKI-1 renal

Row | SMILES | TGI (SK-MEL-5 melanoma) | TGI (HCT-15 colon) | TGI (TK-10 renal) | TGI (K-562 leukemia) | TGI (NCI-H23 lung) | TGI (SK-MEL-28 melanoma) | TGI (IGROV1 ovarian) | TGI (NCI/ADR-RES ovarian) | TGI (SF-268 CNS) | TGI (CAKI-1 renal)
1 | C[C@]12CC[C@H]3[C@@H](CCC4=CC(=O)CC[C@@]43C)[C@@H]1CC[C@@H]2OC(=O)c1cccc2c(=O)c3ccccc3[nH]c12 | > 100 µM | > 100 µM | > 100 µM | 80 µM | > 100 µM | > 100 µM | > 100 µM | > 100 µM | > 100 µM | 
2 | OCC(O)C(O)C(C=NNc1ncnc2ccc(Br)cc12)=NNc1ncnc2ccc(Br)cc12 (stereo unspecified) | 2.68 µM and 4.28 µM |  | > 100 µM | > 100 µM |  | > 100 µM | 12.2 µM and > 100 µM |  | 25 µM and > 100 µM | 
3 | C#CC1(O)CC(c2ccccc2)N(C)C(c2ccccc2)C1 (stereo unspecified) | > 100 µM | > 100 µM | > 100 µM | > 100 µM | > 100 µM | > 100 µM | > 100 µM |  | > 100 µM | > 100 µM
4 | Cc1ccc2nnc(NS(=O)(=O)c3cc(C)c(Cl)cc3S)n2n1 | > 100 µM | > 100 µM | > 100 µM | > 100 µM |  | > 100 µM | > 100 µM | > 100 µM | > 100 µM | > 100 µM
5 | Cc1cn(C2CC(O)C(Cn3nncc3Cn3ccc(=O)[nH]c3=O)O2)c(=O)[nH]c1=O (stereo unspecified) | > 100 µM | > 100 µM | > 100 µM |  | > 100 µM | > 100 µM | > 100 µM | > 100 µM | > 100 µM | > 100 µM
6 | O=c1c2cc([N+](=O)[O-])cnc2sn1-c1ccc(Br)cc1 | > 100 µM | > 100 µM | > 100 µM |  | > 100 µM | > 100 µM | > 100 µM | > 100 µM | 75.1 µM | 
7 | Nc1ccc2c(c1)S(=O)(=O)c1cc(N)ccc1-2 | > 100 µM | > 100 µM | > 100 µM | > 100 µM | > 100 µM |  | > 100 µM | > 100 µM | > 100 µM | > 100 µM
8 | N#CCCN(CCC#N)c1ccc(/C=C2\N=C(c3ccccc3)N(c3ccccc3)C2=O)cc1 | > 100 µM | > 100 µM | > 100 µM | > 100 µM |  | > 100 µM | > 100 µM | > 100 µM |  | 
9 | Cn1c2c(c3c(=O)[nH]ncc31)CCCc1ccccc1-2 | 30.5 µM | > 100 µM | > 100 µM | > 100 µM | > 100 µM |  | 61.6 µM | > 100 µM | 98.8 µM | 69.9 µM
10 | N#C/C=C\c1ccc(-c2cc(C(F)(F)F)cc(C(F)(F)F)c2)o1 | 43.1 µM |  |  | > 100 µM | 30.1 µM | > 100 µM | > 100 µM | > 100 µM | 69.7 µM | > 100 µM
11 | C=[N+](CNC(=O)CNC(=O)C(Cc1ccccc1)NC(=O)OC(C)(C)C)C(=O)CNC(=O)C(Cc1ccccc1)NC(=O)OC(C)(C)C (stereo unspecified) | > 100 µM | > 100 µM |  | > 100 µM | > 100 µM | > 100 µM | > 100 µM | > 100 µM | > 100 µM | > 100 µM
12 | CCCC(=O)OC1=C(c2ccccc2)Sc2ccccc2-n2cccc21 | > 10 µM | > 10 µM | > 10 µM | > 10 µM | > 10 µM | > 10 µM | > 10 µM |  | > 10 µM | > 10 µM
13 | O=C1NC(=O)C2(CCc3ccc(N(CCCl)CCCl)cc32)N1 (stereo unspecified) | 26.6 µM | 49 µM |  | > 100 µM | 26.2 µM | 38.1 µM | 34.6 µM | 40.6 µM | 73.5 µM | > 47.9 µM
14 | CN1C(=O)C(O)C[C@@H]1c1ccc(F)cc1 (stereo partly specified) | > 100 µM | > 100 µM | > 100 µM |  | > 100 µM | > 100 µM | > 100 µM |  |  | > 100 µM
15 | O=c1[nH]c(Br)nc2c(N3CCCCC3)c[nH]c12 | > 100 µM | > 100 µM | > 100 µM | > 100 µM | > 100 µM | > 100 µM | > 100 µM |  | > 100 µM | > 100 µM
16 | Cc1ccc(C(=O)C(C)N)cc1C (stereo unspecified) | > 100 µM |  | > 100 µM | > 100 µM | > 100 µM | > 100 µM | > 100 µM |  | > 100 µM | > 100 µM
17 | CCOC(=O)c1c(CN2CCOCC2)n(Cc2ccccc2)c2c1cc(O)c1nc(C)c(C)nc12 | 57.4 µM | > 100 µM | 97.7 µM | > 100 µM | > 100 µM | > 100 µM |  | > 100 µM | 54.4 µM | 64.9 µM
18 | N=c1oc2ccc(Cl)cc2cc1C(=O)NC1CCCCC1 | > 100 µM | > 100 µM |  | > 100 µM | > 100 µM | > 100 µM | > 100 µM | > 100 µM | > 100 µM | > 100 µM
19 | O=C(O)CCCN=C(C(=NCCCC(=O)O)c1ccccc1)c1ccccc1 |  | > 100 µM | > 100 µM | > 100 µM | > 100 µM | > 100 µM | > 100 µM | > 100 µM | > 100 µM | 
20 | CC(C)(C)c1cc2c(O)c(c1)COCc1cc(C(C)(C)C)cc(c1O)COCc1cc(C(C)(C)C)cc(c1O)COC2 | > 100 µM | > 100 µM | > 100 µM | > 100 µM | > 100 µM | > 100 µM | > 100 µM | > 100 µM |  | 
21 | CC1OC(n2cnc3c(N)nc(Cl)nc32)C(C)(O)C1O (stereo unspecified) | > 25 µM | > 25 µM | > 25 µM | > 25 µM | > 25 µM |  | > 25 µM | > 25 µM | > 25 µM | > 25 µM
22 | CCCNC(=O)c1cc(NC(=O)c2cc(NC(=O)CCS(=O)(=O)OC)cn2C)cn1C | 44.1 µM | > 100 µM | > 100 µM | > 100 µM | 40.7 µM | > 100 µM | > 56.5 µM | > 100 µM |  | > 75.3 µM
